Measured values published in US6204284A, “Use of 1-(substitutedphenyl)-3-azabicyclo[3.1.0]hexanes for the treatment of chemical dependencies” (priority 1995, dated 2001).
Values joined by “and” are separate entries in the source; they are usually repeats but may differ in a detail not shown here. Equal entries are not always repeated. “Also recorded” adds a separate entry of the source.

Experiments:
[1] = test system: Male Wistar rats; assay: Free-choice ethanol (6% v/v) vs tap water drinking, Part I; format: in vivo, rat; details: for Ethanol Intake / Ethanol Preference / Food Consumption / Total Fluid Intake: mean ± S.D.
Description: Male Wistar rats are presented with an everyday free-choice between a 6% (v/v) ethanol solution and tap water. Following a seven-day baseline period, which establishes a pattern of stable drinking, only those animals whose consumption is greater than 50% of their total fluid intake are given intraperitoneal injections of three drugs. In part I citalopram (positive control) a neuronal serotonin uptake inhibitor at a dose of 30 mg/kg, […], and 1-(3,4-dichlorophenyl)-3-azabicyclo[3.1.0]hexane hydrochloride, also a serotonin uptake inhibitor, at doses of 5, 10 and 20 mg/kg are given by intraperitoneal injection for seven days. In part II, animals are given intraperitoneal injections of diazepam at a dose of 10 mg/kg and again the positive control used is citalopram at 30 mg/kg. Treatment period for part II also is over a seven-day period. Following the seven-day treatment period, a post-treatment period which lasted for an additional seven days is conducted where the animals are presented with a free choice between ethanol and water in order to determine the rate of recovery of ethanol drinking. During baseline, drug treatment and post-treatment periods, ethanol consumption by the rats is calculated in terms of daily ethanol preference ratio (volume of ethanol per volume of total daily fluid intake) and in terms of daily absolute of ethanol ingested (g/kg body weight).
Two hundred (200) drug-naive male Wistar rats obtained from the Canadian Breeding Farm Laboratories in Charles River Canada are used. All animals weigh between 180-200 g at the beginning of the experiment.
All animals are individually housed in stainless steel cages, in a room regulated for constant temperature, humidity and a 12-hour light/dark cycle (7:00 a.m.-7:00 p.m.). Each cage is equipped with two calibrated glass Richter tubes to deliver the fluids (ethanol and water) to the animals. All animals are presented with a free choice between ethanol and tap water throughout the experiment. The drinking vessels are randomly reversed in order to avoid bias generated by a position preference in the animals. In addition, Purina Rat Chow is made available throughout the experiment on an ad libitum basis.
At approximately the same time every day, 1300 h, the volume in mls of ethanol and tap water consumed by each animal is recorded. All tubes are then removed from the cages, rinsed and refilled with the appropriate fluids, i.e., ethanol solution and tap water. Also, all animals are weighed and their corresponding body weights recorded. At this time, additional food is provided.
Drugs used in part I are dissolved in Ringers solution to form the required doses. Drugs used in part II are suspended in a vehicle which consists of a 2% pre-boiled starch solution containing 5% polyethylene glycol 400 and tween 80 (1 drop/10 ml vehicle). All drugs are administered intraperitoneally according to the schedule (see Treatment period).
Group 2--citalopram 30 mg/kg (n=10)
Group 3--1-(3,4-dichlorophenyl)-3-azabicyclo[3.1.0]hexane hydrochloride 5 mg/kg (n=10)
Group 4--1-(3,4-dichlorophenyl)-3-azabicyclo[3.1.0]hexane hydrochloride 10 mg/kg (n=10)
Group 5--1-(3,4-dichlorophenyl)-3-azabicyclo[3.1.0]hexane hydrochloride 20 mg/kg (n=10)
Post-treatment period:--Upon cessation of the drug treatment period, the animals are presented with a free choice between 6% ethanol and tap water for an additional 7 days in order to determine the rate of recovery of ethanol drinking.

[2] = test system: Norepinephrine (NE) reuptake in rat brain synaptosomes; assay: Inhibition of rat synaptosomal uptake of 3H-norepinephrine; format: biochemical; details: rat diencephalic-mid brain crude synaptosomes; 3H-NE 2×10^-8 M; Hill analysis
Excerpt: (§1) Male Wistar rats weighing approximately 180-200 g are decapitated and their brains rapidly removed and dissected according to the method of Glowinski and Iversen. Glowinski, J. and Iversen, L. L., Regional studies of catecholamines in the rat brain I. The disposition of 3H-norepinephrine, 3H-dopamine and 3H-DOPA in various regions of the brain. J. Neurochem. 13:655-669, 1966.
(§2) Striatal tissues are pooled from three rat brains for the uptake of 3H-dopamine (3H-DA) and diencephalic-mid brain areas were used for the uptake of 3H-norepinephrine (3H-NE) and 3H-serotonin (3H-5HT). The tissues are immediately weighed and homogenized with a teflon-glass pestle homogenizer in 10 volumes of ice cold 0.32 M sucrose. The homogenates are centrifuged at 4° C. at 900×g for 10 minutes to remove nuclear particles and cellular debris. The supernatants are carefully withdrawn and transferred into clean test tubes kept in ice. Aliquots of these preparations containing crude synaptic nerve endings are used in subsequent uptake studies.
(§3) Amine uptake in crude synaptosomes is determined by a method essentially the same as that described by Snyder and Coyle, Snyder, S. H. and Coyle, J. T. Regional differences in 3H-norepinephrine and 3H-dopamine uptake into rat brain homogenates. J. Pharmacol. Exp. Ther. 165:78-86, 1969. Briefly, a 0.1 ml aliquot of the above tissue preparation is added to test tubes containing 3.7 ml of Krebs-Ringer phosphate buffer pH 7.4 with glucose (2 mg/ml), calcium chloride 0.024%, ascorbic acid (0.2 mg/ml) and nialamide (1.24×10^-5M). 1-(3,4-Dichlorophenyl)-3-azabicyclo[3.1.0]hexane hydrochloride at varying concentrations (0.01-2.5 μM) is added in a 0.1 ml volume. The incubation mixtures are agitated at 37° C. for 10 minutes under an atmosphere of 95% oxygen and 5% CO2 in a Dubnoff metabolic shaker to ensure irreversible inhibition of monoamine oxidase (MAO). After this initial pre-incubation period, the tubes are returned to the ice bath. 3H-DA, 3H-NE or 3H-5HT is added in a 0.1 ml volume to give a final concentration of labeled amine of 2×10^-8 M, and the incubation at 37° C. is continued for an additional 4 min. A set of tubes serving as control (uptake at 0° C.) is left in an ice bath. After the final incubation period, the samples are cooled in ice and then centrifuged at 4° C. at 10,000×g. The supernatant fluid is gently poured off from each tube. The surface of the pellet of each sample is washed with 5 ml of ice cold 0.9% sodium chloride which is then aspirated off without disturbing the pellet. The pellet is resuspended in a cintillation fluid ad radioactivity was determined. Protein content in the tissue samples is determined by the method of Lowry et al. Lowry, O. H., Rosebrough, N. J., Farr, A. L. and Randall, R. J. Protein measurement with the folin reagent. J. Biol. Chem. 193:265, 1951. The concentration of drug which inhibits the uptake of the labeled amine by 50% is determined by Hill analysis of the data.

[3] = test system: Serotonin (5-HT) reuptake in rat brain synaptosomes; assay: Inhibition of rat synaptosomal uptake of 3H-serotonin; format: biochemical; details: rat diencephalic-mid brain crude synaptosomes; 3H-5HT 2×10^-8 M; Hill analysis
Excerpt: as §1, §2, §3

[4] = test system: Dopamine (DA) reuptake in rat brain synaptosomes; assay: Inhibition of rat synaptosomal uptake of 3H-dopamine; format: biochemical; details: rat striatal crude synaptosomes; 3H-DA 2×10^-8 M; Hill analysis
Excerpt: as §1
Striatal tissues are pooled from three rat brains for the uptake of 3H-dopamine (3H-DA) and diencephalic-mid brain areas were used for the uptake of 3H-norepinephrine (3H-NE) and 3H-serotonin (3H-5HT). The tissues are immediately weighed and homogenized with a teflon-glass pestle homogenizer in 10 volumes of ice cold 0.32 M sucrose. […]
Amine uptake in crude synaptosomes is determined by a method essentially the same as that described by Snyder and Coyle, Snyder, S. H. and Coyle, J. T. Regional differences in 3H-norepinephrine and 3H-dopamine uptake into rat brain homogenates. […] The pellet is resuspended in a cintillation fluid ad radioactivity was determined. Protein content in the tissue samples is determined by the method of Lowry et al. Lowry, O. H., Rosebrough, N. J., Farr, A. L. and Randall, R. J. Protein measurement with the folin reagent. […] The concentration of drug which inhibits the uptake of the labeled amine by 50% is determined by Hill analysis of the data.

[5] = 5 mg/kg i.p. 7 days, Baseline period
[6] = 5 mg/kg i.p. 7 days, Post-Treatment period
[7] = 10 mg/kg i.p. 7 days, Baseline period
[8] = 10 mg/kg i.p. 7 days, Post-Treatment period
[9] = 20 mg/kg i.p. 7 days, Baseline period
[10] = 20 mg/kg i.p. 7 days, Baseline period, hydrochloride, 20 mg/kg
[11] = 20 mg/kg i.p. 7 days, Post-Treatment period
[12] = 20 mg/kg i.p. 7 days, Post-Treatment period, hydrochloride, 20 mg/kg

In the case of `Cl.Clc1ccc(C23CNCC2C3)cc1Cl` (centres unmarked) [1-(3,4-dichlorophenyl)-3-azabicyclo[3.1.0]hexane hydrochloride], the “Ethanol Intake” value [1, 5] is reported as 5.02 ± 1.16 g/kg body weight, the “Ethanol Preference” value [1, 5] is reported as 83.67 ± 14.58% and the “Food Consumption” value [1, 5] is reported as 19.74 ± 1.65 g/day. For the same compound, the “Total Fluid Intake” value [1, 5] was 5.1937 ± 0.5254 mL/h/kg, the “Ethanol Intake” value [1, 6] was 4.86 ± 1.78 g/kg body weight and the “Ethanol Preference” value [1, 6] was 82.39 ± 20.87%. The “Food Consumption” value [1, 6] was 19.50 ± 1.41 g/day, the “Total Fluid Intake” value [1, 6] was 5.025 ± 0.9108 mL/h/kg and the “Ethanol Intake” value [1, 7] was 4.55 ± 0.90 g/kg body weight. The “Ethanol Preference” value [1, 7] was 75.05 ± 16.53%, the “Food Consumption” value [1, 7] was 20.43 ± 1.55 g/day and the “Total Fluid Intake” value [1, 7] was 5.3292 ± 0.6617 mL/h/kg. The “Ethanol Intake” value [1, 8] was 2.99 ± 1.42 g/kg body weight, the “Ethanol Preference” value [1, 8] was 55.90 ± 28.51% and the “Food Consumption” value [1, 8] was 21.32 ± 1.96 g/day. The “Total Fluid Intake” value [1, 8] was 4.8087 ± 0.6483 mL/h/kg, the “Food Consumption” value [1, 9] was 20.28 ± 1.12 g/day and the “Total Fluid Intake” value [1, 9] was 4.84 ± 0.4304 mL/h/kg. The “Ethanol Intake” value [1, 10] was 3.79 g/kg body weight and 3.80 ± 1.00 g/kg body weight, the “Ethanol Preference” value [1, 10] was 67.94% and 67.94 ± 17.05% and the “Food Consumption” value [1, 11] was 20.88 ± 2.08 g/day. For the same compound, the “Total Fluid Intake” value [1, 11] was 4.4675 ± 0.4983 mL/h/kg, the “Ethanol Intake” value [1, 12] was 3.04 g/kg body weight and 3.04 ± 1.34 g/kg body weight and the “Ethanol Preference” value [1, 12] was 58.66% and 58.66 ± 23.98%. The “Ethanol Preference” value ([1]; 20 mg/kg i.p. 7 days, Treatment period, hydrochloride, 20 mg/kg) was 25.55% and 25.55 ± 17.28%, the “Voluntary ethanol consumption (overall statement)” value ([1]; rats, 5, 10 and 20 mg/kg i.p. 7 days, hydrochloride) was “reduces ethanol intake and ethanol preferences; also recorded: significant effect in attenuating voluntary ethanol consumption” and the IC50 [2] was […]. For the same compound, the IC50 [3] was […] and the IC50 [4] was […].
